Results reported in ChEMBL document CHEMBL1201862, “PubChem BioAssay data set” (2004).
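Exposure lasted 48 hours, with cells grown in 96-well plates and compounds tested at five concentrations. At the GI50, growth is halved.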 Calls of active or inactive are those of the source. Rule as the data show it: active = GI50 up to about 1.1 µM and inactive = higher.

What was measured:
Experiment in all cases: inhibition of tumour cell growth, NCI panel, 48 h
[1] = system: EKVX
[2] = system: HL-60
[3] = system: NCI/ADR-RES
[4] = system: UACC-257
[5] = system: HT-29
[6] = system: SR
[7] = system: HOP-62
[8] = system: CCRF-CEM
[9] = system: UACC-62
[10] = system: SF-539
[11] = system: KM12
[12] = system: Hs-578T
[13] = system: TK-10
[14] = system: LOX IMVI
[15] = system: MDA-MB-231
[16] = system: SNB-19
[17] = system: SK-MEL-2
[18] = system: U-251
[19] = system: MOLT-4

CC(C)(C)OC(=O)N1N=CCC1c1ccccc1 (stereo not given)
GI50 [1]: > 100 µM (inactive) | GI50 [2]: > 100 µM (inactive) | GI50 [3]: > 100 µM (inactive) | GI50 [4]: > 100 µM (inactive) | GI50 [5]: > 100 µM (inactive) | GI50 [6]: > 100 µM (inactive) | GI50 [7]: > 100 µM (inactive) | GI50 [8]: 56.2 µM (inactive) | GI50 [9]: > 100 µM (inactive) | GI50 [10]: > 100 µM (inactive) | GI50 [11]: > 100 µM (inactive) | GI50 [12]: > 100 µM (inactive) | GI50 [13]: > 100 µM (inactive) | GI50 [14]: > 100 µM (inactive)

C=CCCC(=O)N1CCC(C(=O)OCC)C1=O (stereo not given)
GI50 [1]: > 100 µM (inactive) | GI50 [15]: > 100 µM (inactive) | GI50 [2]: > 100 µM (inactive) | GI50 [3]: > 100 µM (inactive) | GI50 [4]: > 100 µM (inactive) | GI50 [16]: > 100 µM (inactive) | GI50 [17]: > 100 µM (inactive) | GI50 [18]: > 100 µM (inactive) | GI50 [19]: > 100 µM (inactive) | GI50 [7]: > 100 µM (inactive) | GI50 [8]: > 100 µM (inactive) | GI50 [9]: > 100 µM (inactive) | GI50 [10]: > 100 µM (inactive) | GI50 [11]: > 100 µM (inactive) | GI50 [12]: > 100 µM (inactive) | GI50 [13]: > 100 µM (inactive) | GI50 [14]: > 100 µM (inactive)

Cn1c2ccccc2n2c3ccccc3c3nnc(N)c-3c12
GI50 [1]: > 100 µM (inactive) | GI50 [15]: 55 µM (inactive) | GI50 [2]: > 100 µM (inactive) | GI50 [3]: > 100 µM (inactive) | GI50 [4]: 51.1 µM (inactive) | GI50 [16]: 1.45 µM (inactive) | GI50 [17]: 22.6 µM (inactive) | GI50 [18]: 0.673 µM (active) | GI50 [5]: > 100 µM (inactive) | GI50 [19]: 7.67 µM (inactive) | GI50 [6]: 26.7 µM (inactive) | GI50 [7]: 9.2 µM (inactive) | GI50 [8]: 37.3 µM (inactive) | GI50 [9]: 73.6 µM (inactive) | GI50 [11]: 61.5 µM (inactive) | GI50 [12]: 1.69 µM (inactive) | GI50 [13]: > 100 µM (inactive) | GI50 [14]: 57.7 µM (inactive)

CSc1ncc2c(n1)-c1ccccc1OC2NC(C)(C)C (stereo not given)
GI50 [1]: 29 µM (inactive) | GI50 [15]: > 100 µM (inactive) | GI50 [2]: > 100 µM (inactive) | GI50 [4]: > 100 µM (inactive) | GI50 [16]: > 100 µM (inactive) | GI50 [18]: > 100 µM (inactive) | GI50 [5]: 77.6 µM (inactive) | GI50 [19]: 47.2 µM (inactive) | GI50 [6]: > 100 µM (inactive) | GI50 [7]: > 100 µM (inactive) | GI50 [8]: 91.4 µM (inactive) | GI50 [9]: 68.1 µM (inactive) | GI50 [10]: > 100 µM (inactive) | GI50 [11]: > 100 µM (inactive) | GI50 [12]: 83.4 µM (inactive) | GI50 [13]: 33.9 µM (inactive) | GI50 [14]: > 100 µM (inactive)

N#Cc1ccc(Oc2ccccc2)cc1C#N
GI50 [1]: > 100 µM (inactive) | GI50 [2]: 28.2 µM (inactive) | GI50 [4]: > 100 µM (inactive) | GI50 [16]: > 100 µM (inactive) | GI50 [17]: 82.4 µM (inactive) | GI50 [18]: 44.3 µM (inactive) | GI50 [5]: 53.2 µM (inactive) | GI50 [19]: 59.3 µM (inactive) | GI50 [6]: 20.4 µM (inactive) | GI50 [7]: > 100 µM (inactive) | GI50 [8]: 22.4 µM (inactive) | GI50 [9]: > 100 µM (inactive) | GI50 [10]: > 100 µM (inactive) | GI50 [11]: > 100 µM (inactive) | GI50 [13]: > 100 µM (inactive) | GI50 [14]: 20.7 µM (inactive)

CC(C)(C)OC(=O)NCC(CNC(=O)OC(C)(C)C)C(N)=O
GI50 [1]: > 100 µM (inactive) | GI50 [15]: > 100 µM (inactive) | GI50 [2]: > 100 µM (inactive) | GI50 [3]: > 100 µM (inactive) | GI50 [4]: > 100 µM (inactive) | GI50 [16]: > 100 µM (inactive) | GI50 [18]: > 100 µM (inactive) | GI50 [5]: > 100 µM (inactive) | GI50 [19]: > 100 µM (inactive) | GI50 [6]: > 100 µM (inactive) | GI50 [7]: > 100 µM (inactive) | GI50 [8]: > 100 µM (inactive) | GI50 [9]: > 100 µM (inactive) | GI50 [10]: > 100 µM (inactive) | GI50 [11]: > 100 µM (inactive) | GI50 [12]: > 100 µM (inactive) | GI50 [13]: > 100 µM (inactive) | GI50 [14]: > 100 µM (inactive)
